# Where a name gives a salt, the structure may show the parent alone.
# Biological target: PAF receptor (Oryctolagus cuniculus, UniProt G1TEI7)
# Experiment: PAF receptor binding assay: inhibition of specific [^3 H]C18 -PAF binding to rabbit platelet membranes
# Conditions: not given
# Chain of PAF receptor (G1TEI7 1-342): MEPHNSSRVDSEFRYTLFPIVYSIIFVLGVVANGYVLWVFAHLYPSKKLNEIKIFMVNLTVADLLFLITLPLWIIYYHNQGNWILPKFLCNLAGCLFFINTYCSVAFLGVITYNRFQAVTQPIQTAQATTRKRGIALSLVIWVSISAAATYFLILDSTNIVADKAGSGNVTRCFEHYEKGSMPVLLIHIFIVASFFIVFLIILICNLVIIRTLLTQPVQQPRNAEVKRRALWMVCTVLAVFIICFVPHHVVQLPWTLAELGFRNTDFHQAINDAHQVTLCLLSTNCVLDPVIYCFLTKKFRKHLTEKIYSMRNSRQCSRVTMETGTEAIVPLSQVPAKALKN
row,Structure (SMILES),Ki [nM]
1,"CCOCCn1cc(C(=O)N2CCC(Cn3c(C)nc4cnccc43)CC2)c2ccc(-c3ccc(F)cc3)cc21 [Example 8, 1-(2-ethoxyethyl)-6-(4-fluorophenyl)-3-{[4-(1H-2-methylimidazo[4,5-c]pyrid-1-yl)methylpiperidin-1-yl]carbonyl}indole hydrochloride]",1.2
2,CCOCCn1cc(C(=O)CN2CCC(n3c(C)nc4cnccc43)CC2)c2c(C(=O)OC)cccc21 [Example 23],5.2
3,CCOCCn1cc(C(=O)CN2CCC(n3c(C)nc4cnccc43)CC2)c2c(Cl)cccc21 [Example 25],10
4,"CCOCCn1cc(C(=O)CN2CCC(n3c(C)nc4cnccc43)CC2)c2c(C)cccc21 [Example 28, 1-(2-ethoxyethyl)-4-methyl-3-{[4-(1H-2-methylimidazo[4.5-c]pyrid-1-yl)piperidin-1-yl]acetyl}indole]",0.5

# Same assay, conditions: @ 1.0 μM; rabbit platelet membranes; 0.6 nM [^3 H]C18 -PAF; 60 minutes at room temperature
row,inhibition at 1 µM [%],Structure (SMILES)
1,32,"Cc1nc2cnccc2n1C1CCN(S(=O)(=O)c2c[nH]c3cc(-c4ccc(F)cc4)ccc23)CC1 [Example 13, 6-(4-fluorophenyl)-3-{[4-(1H-2-methylimidazo[4.5-c]pyrid-1-yl)piperidin-1-yl]sulfonyl}indole]"

# Same assay, conditions: rabbit platelet membranes; 0.6 nM [^3 H]C18 -PAF; 60 minutes at room temperature; pH 7.0; Ki by Cheng and Prusoff from IC50
row,Structure (SMILES),Ki [nM]
1,"CCOCCn1cc(C(=O)N2CCC(Cn3c(C)nc4cnccc43)CC2)c2c(Cl)cccc21 [Example 9, 1-(2-ethoxyethyl)-4-chloro-3-{[4-(1H-2-methylimidazo[4.5-c]pyrid-1-yl)methylpiperidin-1-yl]carbonyl}indole hydrochloride]",29

# Same assay, conditions: rabbit platelet membranes; 0.6 nM [^3 H]C18 -PAF; 60 minutes at room temperature; pH 7.0; Ki by Cheng and Prusoff from IC50; read-out: Ki
row,Ki [nM],Structure (SMILES)
1,3.3,"Cc1nc2cnccc2n1C1CCN(C(=O)c2cn(C(=O)N(C)C)c3cc(-c4ccc(F)cc4)ccc23)CC1 [Example 1, 6-(4-fluorophenyl)-3-{[4-(1H-2-methylimidazo[4.5-c]pyrid-1-yl)piperidin-1-yl]carbonyl)indole-1-carboxylic acid dimethyl amide hydrochloride]"
2,44,"Cc1nc2cnccc2n1C1CCN(C(=O)c2c[nH]c3cc(-c4ccc(F)cc4)ccc23)CC1 [Example 2, 6-(4-fluorophenyl)-3-{[4-(1H-2-methylimidazo[4.5-c]pyrid-1-yl)piperidin-1-yl]carbonyl}indole hydrochloride]"
3,100,"Cc1nc2cnccc2n1C1CCN(C(=O)c2c[nH]c3ccccc23)CC1 [Example 3, 3-{[4-(1H-2-methylimidazo[4,5-c]pyrid-1-yl)piperidin-1-yl]carbonyl}indole hydrochloride]"
4,140,"COC(=O)c1cccc2c1c(C(=O)N1CCC(n3c(C)nc4cnccc43)CC1)cn2C(=O)N(C)C [Example 4, 3-{[4-(1H-2-methylimidazo[4.5-c]pyrid-1-yl)piperidin-1-yl]carbonyl}indole-1,4-dicarboxylic acid 1-dimethyl amide-4-methyl ester hydrochloride]"
5,74,"COC(=O)c1cccc2c1c(C(=O)N1CCC(Cn3c(C)nc4cnccc43)CC1)cn2C(=O)N(C)C [Example 5, 1-N,N-dimethylcarbamoyl-4-methoxycarbonyl-3-{[4-(1H-2-methylimidazo[4.5-c]pyrid-1-yl)methylpiperidin-1-yl]carbonyl}indole-1,4-dicarboxylic acid 1-dimethyl amide-4-methyl ester hydrochloride]"
6,2.5,"Cc1nc2cnccc2n1CC1CCN(C(=O)c2cn(C(=O)N(C)C)c3cc(-c4ccc(F)cc4)ccc23)CC1 [Example 6, 6-(4-fluorophenyl)-3-{[4-(1H-2-methylimidazo[4.5-c]pyrid-1-yl)methylpiperidin-1-yl]carbonyl}indole-1-carboxylic acid dimethyl amide hydrochloride]"
7,18,"Cc1nc2cnccc2n1CC1CCN(C(=O)c2cn(C(=O)N(C)C)c3cccc(Cl)c23)CC1 [Example 7, 4-chloro-3-{[4-(1H-2-methylimidazo[4.5-c]pyrid-1-yl)methylpiperidin-1-yl]carbonyl}indole-1-carboxylic acid dimethyl amide hydrochloride]"
8,200,"COC(=O)c1cccc2c1c(C(=O)N1CCN(CCn3c(C)nc4cnccc43)CC1)cn2C(=O)N(C)C [Example 10, 3-[{4-[(2-(1H-2-methylimidazo[4.5-c]pyrid-1-yl)ethyl]piperazin-1-yl}carbonyl]indole-1,4-dicarboxylic acid 1-dimethyl amide 4-methyl ester hydrochloride]"
9,30,"Cc1nc2cnccc2n1CCN1CCN(C(=O)c2cn(C(=O)N(C)C)c3cc(-c4ccc(F)cc4)ccc23)CC1 [Example 11, 6-(4-fluorophenyl)-3-[{4-[(2-(1H-2-methylimidazo[4.5-c]pyrid-1-yl)ethyl]piperazin-1-yl}carbonyl]indole-1-carboxylic acid dimethyl amide hydrochloride]"
10,340,"Cc1nc2cnccc2n1C1CCN(S(=O)(=O)c2cn(C(=O)OC(C)(C)C)c3cc(-c4ccc(F)cc4)ccc23)CC1 [Example 12, 6-(4-fluorophenyl)-3-{[4-(1H-2-methylimidazo[4.5-c]pyrid-1-yl)piperidin-1-yl]sulfonyl}indole-1-carboxylic acid t-butyl ester]"
11,120,"Cc1nc2cnccc2n1C1CCN(S(=O)(=O)c2cn(C(=O)N(C)C)c3cc(-c4ccc(F)cc4)ccc23)CC1 [Example 14, 6-(4-fluorophenyl)-3-{[4-(1H-2-methylimidazo[4.5-c]pyrid-1-yl)piperidin-1-yl]sulfonyl}indole-1-carboxylic acid dimethyl amide hydrochloride]"
12,65,"Cc1nc2cnccc2n1CC1CCN(S(=O)(=O)c2cn(C(=O)OC(C)(C)C)c3cc(-c4ccc(F)cc4)ccc23)CC1 [Example 15, 6-(4-fluorophenyl)-3-{[4-(1H-2-methylimidazo[4.5-c]pyrid-1-yl)methylpiperidin-1-yl]sulfonyl)indole-1-carboxylic acid t-butyl ester]"
13,250,"Cc1nc2cnccc2n1CC1CCN(S(=O)(=O)c2c[nH]c3cc(-c4ccc(F)cc4)ccc23)CC1 [Example 16, 6-(4-fluorophenyl)-3-{[4-(1H-2-methylimidazo[4.5-c]pyrid-1-yl)methylpiperidin-1-yl]sulfonyl}indole]"
14,1.2,"Cc1nc2cnccc2n1CC1CCN(S(=O)(=O)c2cn(C(=O)N(C)C)c3cc(-c4ccc(F)cc4)ccc23)CC1 [Example 17, 6-(4-fluorophenyl)-3-{[4-(1H-2-methylimidazo[4.5-c]pyrid-1-yl)methylpiperidin-1-yl]sulfonyl}indole-1-carboxylic acid dimethyl amide]"
15,110,Cc1nc2cnccc2n1CCN1CCN(S(=O)(=O)c2cn(C(=O)N(C)C)c3cc(-c4ccc(F)cc4)ccc23)CC1 [Example 18]
16,95,"Cc1nc2cnccc2n1C1CCN(CC(=O)c2c[nH]c3cc(-c4ccc(F)cc4)ccc23)CC1 [Example 19, 6-(4-fluorophenyl)-3-{[4-(1H-2-methylimidazo[4.5-c]pyrid-1-yl)piperidin-1-yl]acetyl}indole]"
17,2.5,Cc1nc2cnccc2n1C1CCN(CC(=O)c2cn(C(=O)N(C)C)c3cc(-c4ccc(F)cc4)ccc23)CC1 [Example 20]
18,14,"COC(=O)c1cccc2[nH]cc(C(=O)CN3CCC(n4c(C)nc5cnccc54)CC3)c12 [Example 21, 3-{[4-(1H-2-methylimidazo[4.5-c]pyrid-1-yl)piperidin-1-yl]acetyl}indole-4-carboxylic acid methy ester]"
19,12,"COC(=O)c1cccc2c1c(C(=O)CN1CCC(n3c(C)nc4cnccc43)CC1)cn2C(=O)N(C)C [Example 22, 3-{[4-(1H-2-methylimidazo[4.5-c]pyrid-1-yl)piperidin-1-yl]acetyl}indole-1,4-dicarboxylic acid 1-dimethyl amide 4-methyl ester]"
20,30,"Cc1nc2cnccc2n1C1CCN(CC(=O)c2c[nH]c3cccc(Cl)c23)CC1 [Example 24, 4-chloro-3-{[4-(1H-2-methylimidazo[4.5-c]pyrid-1-yl)piperidin-1-yl]acetyl}indole]"
21,12,"Cc1nc2cnccc2n1C1CCN(CC(=O)c2cn(C(=O)N(C)C)c3cccc(Cl)c23)CC1 [Example 26, 4-chloro-3-{[4-(1H-2-methylimidazo[4.5-c]pyrid-1-yl)piperidin-1-yl]acetyl}indole-1-carboxylic acid dimethyl amide]"
22,71,"Cc1cccc2[nH]cc(C(=O)CN3CCC(n4c(C)nc5cnccc54)CC3)c12 [Example 27, 4-methyl-3-{[4-(1H-2-methylimidazo[4.5-c]pyrid-1-yl)piperidin-1-yl]acetyl}indole]"
23,2,"Cc1cccc2c1c(C(=O)CN1CCC(n3c(C)nc4cnccc43)CC1)cn2C(=O)N(C)C [Example 29, 4-methyl-3-{[4-(1H-2-methylimidazo[4.5:c]pyrid-1-yl)piperidin-1-yl]acetyl}indole-1-carboxylic acid dimethyl amide]"
24,2.4,"COC(=O)c1cccc2c1c(C(=O)[C@H]1CC[C@H](Cn3c(C)nc4cnccc43)CC1)cn2C(=O)N(C)C [Example 30, 3-{[trans-4-[(1H-2-methylimidazo[4.5-c]pyrid-1-yl)methylcyclohex-1-yl]carbonyl}indole-1,4-dicarboxylic acid 1-dimethyl amide 4-methyl ester hydrochloride]"
